*1 amine or outer side, *2 acyl side, *3 side chain or, on linkers, in order; H or OH if unused. Where a SMILES comes first, the peptide text is derived from it. Side-chain parts run from the residue outwards. [ ]: non-standard residue; d: D form. The star is where a group is joined. C18 diacid = O=C(O)CCCCCCCCCCCCCCCCC(=O)*; γGlu = O=C(O)[C@H](CCC(=O)[*:2])N[*:1]; Pentanoyl = CCCCC(=O)*; Aib = CC(C)(N)C(=O)O
Legend:
human CRF2a receptor = biological target: T1, human CRF2a receptor (Homo sapiens, UniProt Q13324); assay: Activity at human CRF2a receptor, cAMP functional assay in TeloHEAC cells; type: cell-based; details: TeloHEAC cells stably expressing human CRF2a receptor, relative to urocortin 2 (100 nM = 100%)
T1 construct: expressed in transfected cells; host or cells: TeloHEAC cells
T1 sequence (Q13324 1-411): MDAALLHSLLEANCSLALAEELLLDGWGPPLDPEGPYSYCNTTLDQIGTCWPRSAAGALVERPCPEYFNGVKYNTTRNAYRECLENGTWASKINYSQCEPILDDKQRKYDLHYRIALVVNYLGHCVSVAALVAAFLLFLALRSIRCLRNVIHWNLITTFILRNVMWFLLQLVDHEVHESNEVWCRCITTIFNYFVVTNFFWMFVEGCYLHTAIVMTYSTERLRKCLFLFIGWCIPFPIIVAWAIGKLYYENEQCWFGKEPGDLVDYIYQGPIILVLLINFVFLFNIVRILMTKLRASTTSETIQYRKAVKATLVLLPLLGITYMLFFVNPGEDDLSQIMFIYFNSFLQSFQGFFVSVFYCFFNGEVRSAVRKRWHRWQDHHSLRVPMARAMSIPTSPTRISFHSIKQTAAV
How it was run: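 TeloHEAC cells stably expressing human CRF2a (10000 cells/well) were treated with 16-point 1:2 compound dilutions in HBSS/20 mM HEPES with IBMX for 30 min at 37° C. cAMP was read by HTRF (665/620 nm ratio). EC50 was the concentration giving 50% activation, with 100 nM urocortin 2 set as 100%.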

CFR1R receptor = biological target: T2, CFR1R receptor (Homo sapiens, UniProt P34998); assay: Activity at anti-target CFR1R receptor, cAMP assay in CRF1R-overexpression CHO-K1 cells; type: cell-based; details: 100% = Sauvagine at 100 nM; for EC50: cAMP
T2 construct: host or cells: CHO-K1 (clone 2)
T2 sequence (P34998 24-415): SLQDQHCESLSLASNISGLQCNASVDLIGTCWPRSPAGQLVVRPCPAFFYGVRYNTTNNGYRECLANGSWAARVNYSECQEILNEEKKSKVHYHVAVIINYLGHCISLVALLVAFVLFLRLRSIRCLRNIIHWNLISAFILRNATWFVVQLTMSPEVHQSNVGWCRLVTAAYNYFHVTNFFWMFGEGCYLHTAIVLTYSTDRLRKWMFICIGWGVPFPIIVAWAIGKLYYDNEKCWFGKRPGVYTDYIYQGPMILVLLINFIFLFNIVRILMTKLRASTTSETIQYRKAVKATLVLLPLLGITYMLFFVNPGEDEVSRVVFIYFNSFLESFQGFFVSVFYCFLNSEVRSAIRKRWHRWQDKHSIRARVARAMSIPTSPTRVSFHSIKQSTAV
How it was run: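 The method mirrors that used with TeloHAEC cells. Here, thawed clone 2 cells seeded at 4000 cells/well are tested, and 100 nM Sauvagine sets the top of the activation scale.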

[1] = Pharmacokinetics in male Sprague Dawley rats after subcutaneous administration; type: in vivo; details: plasma, rat, IV, 0.05 mg/kg
[2] = Chemical stability in buffer (pH 7.4 / pH 4.5), % purity loss; type: physicochemical; details: 100 mM phosphate buffer pH 7.4; 40° C. vs 5° C.; 14 or 28 days
How it was run: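 LC-UV gave % loss after 14 or 28 days of storage at 5 °C or 40 °C. Samples were diluted supernatants from compound incubated 1 h at room temperature at 10 mg/mL target, in 100 mM acetate pH 4.5 or 100 mM phosphate pH 7.4.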

Sprague Dawley rats = assay: Effect on systolic blood pressure, telemetry in Sprague Dawley rats; type: in vivo, rat; details: 0.1 mg/kg SC; for Systolic blood pressure (Mean) % change from baseline, 8 h / Systolic blood pressure (Mean) % change from baseline, 12 h / Systolic blood pressure (Mean) % change from baseline, 24 h: n=2; for Duration of action: last time point with an effect on BP still observed
How it was run: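 Values are % change from a 1 h pre-dose baseline in systolic pressure, tracked by telemetry for up to 48 hours after a single 0.1 mg/kg subcutaneous dose. Rats (Sprague Dawley, n=2 per peptide) carried aortic catheters and recovered at least 10 days post-surgery; duration of action marks the last time point still showing an effect.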

[3] = In vitro subcutaneous tissue supernatant (SCts) stability and metabolite identification, rat; type: in vitro ADME; design: remaining at 2 h: dose or concentration left out as unconfirmed; details: male, Sprague Dawley; rat subcutaneous tissue supernatant (SCts), 37° C, 2 h

## CC[C@H](C)[C@H](NC(C)=O)C(=O)N[C@H](C(=O)N[C@@H](CC(C)C)C(=O)N[C@@H](CO)C(=O)N[C@@H](CC(C)C)C(=O)N[C@@H](CC(=O)O)C(=O)N[C@@H](C(=O)N1CCC[C@H]1C(=O)N[C@H](C(=O)N[C@@H](CCCCN)C(=O)N[C@@H](CC(C)C)C(=O)N[C@@H](CCCCNC(=O)CC[C@H](NC(=O)CCCCCCCCCCCCCCCCC(=O)O)C(=O)O)C(=O)N[C@@H](CCCCN)C(=O)N[C@H](C(=O)N[C@@H](CC(C)C)C(=O)N[C@@H](CC(C)C)C(=O)N[C@@H](CCC(=O)O)C(=O)N[C@@H](CCC(N)=O)C(=O)N[C@@H](CCC(=O)O)C(=O)N[C@@H](CCCCN)C(=O)N[C@@H](CCC(N)=O)C(=O)N[C@@H](CCCCN)C(=O)N[C@@H](C)C(=O)N[C@@H](CCC(N)=O)C(=O)N[C@@H](CCCNC(=N)N)C(=O)N[C@@H](CCC(=O)O)C(=O)N[C@@H](CCC(N)=O)C(=O)N[C@@H](C)C(=O)N[C@@H](CCC(=O)O)C(=O)N[C@H](C(=O)N[C@@H](CC(N)=O)C(=O)NC(C)(C)C(=O)N[C@@H](CCC(N)=O)C(=O)N[C@H](C(=O)N[C@@H](CC(C)C)C(=O)N[C@@H](C)C(=O)N[C@@H](CCC(N)=O)C(=O)N[C@H](C(N)=O)C(C)C)[C@@H](C)CC)[C@@H](C)O)[C@@H](C)CC)[C@@H](C)CC)C(C)C)C(C)C [compound 189] (Ac-IVLSLD[dV]PIKLK([γGlu-C18 diacid])KILLEQEKQKAQREQAETN[Aib]QILAQV-NH2)
Human CRF2a receptor
  EC50: 290 pM
CFR1R receptor
  Emax (% I): 9 % I
  EC50: > 250000 pM
[1]
  AUC(0-t): 5040 ng·h/mL
  half-life: 7.5 h
[2]
  Buffer stability pH 7.4 % purity loss: 0.0/Not Tested %
Sprague Dawley rats
  Systolic blood pressure (Mean) % change from baseline, 8 h: −27%
  Systolic blood pressure (Mean) % change from baseline, 12 h: −25%
  Systolic blood pressure (Mean) % change from baseline, 24 h: −13%
  Duration of action: >24 h
[3]
  remaining at 2 h: 67%

## CCCCC(=O)N[C@H](C(=O)N[C@@H](CC(C)C)C(=O)N[C@@H](CO)C(=O)N[C@@H](CC(C)C)C(=O)N[C@@H](CC(=O)O)C(=O)N[C@@H](C(=O)N1CCC[C@H]1C(=O)N[C@H](C(=O)N[C@@H](CCCCN)C(=O)N[C@@H](CC(C)C)C(=O)N[C@@H](CCCCNC(=O)CC[C@H](NC(=O)CCCCCCCCCCCCCCCCC(=O)O)C(=O)O)C(=O)N[C@@H](CCCCN)C(=O)N[C@H](C(=O)N[C@@H](CC(C)C)C(=O)N[C@@H](CC(C)C)C(=O)N[C@@H](CCC(=O)O)C(=O)N[C@@H](CCC(N)=O)C(=O)N[C@@H](CCC(=O)O)C(=O)N[C@@H](CCCCN)C(=O)N[C@@H](CCC(N)=O)C(=O)N[C@@H](CCCCN)C(=O)N[C@@H](CCCCN)C(=O)N[C@@H](CCC(N)=O)C(=O)N[C@@H](CCCNC(=N)N)C(=O)N[C@@H](CCC(=O)O)C(=O)N[C@@H](CCC(N)=O)C(=O)N[C@@H](C)C(=O)N[C@@H](CCC(=O)O)C(=O)N[C@H](C(=O)N[C@@H](CC(N)=O)C(=O)NC(C)(C)C(=O)N[C@@H](CCC(N)=O)C(=O)N[C@H](C(=O)N[C@@H](CC(C)C)C(=O)N[C@@H](C)C(=O)N[C@@H](CCC(N)=O)C(=O)N[C@H](C(N)=O)C(C)C)[C@@H](C)CC)[C@@H](C)O)[C@@H](C)CC)[C@@H](C)CC)C(C)C)C(C)C [compound 193] (Pentanoyl-VLSLD[dV]PIKLK([γGlu-C18 diacid])KILLEQEKQKKQREQAETN[Aib]QILAQV-NH2)
Human CRF2a receptor
  EC50: 170 pM
CFR1R receptor
  Emax (% I): 20 % I
  EC50: > 250000 pM
[1]
  AUC(0-t): 2340 ng·h/mL
  half-life: 4.9 h
[2]
  Buffer stability pH 7.4 % purity loss: 0.0/Not Tested %
Sprague Dawley rats
  Systolic blood pressure (Mean) % change from baseline, 8 h: −20%
  Systolic blood pressure (Mean) % change from baseline, 12 h: −12%
  Systolic blood pressure (Mean) % change from baseline, 24 h: −8%
  Duration of action: >24 h
[3]
  remaining at 2 h: 56%
